Counter-ions that a name gives are not always drawn.
Key:
[1] = target: T1, glutathione S-transferase (GST)-linked full-length human Syk protein (Homo sapiens, UniProt P43405); experiment: Syk enzyme assay; format: biochemical; settings: 0.83 nM Syk, time-resolved fluorescence; read-out: IC50 of Syk-inhibitory activity
T1 construct: glutathione S-transferase (GST)-linked full-length human Syk protein; purchased Carna Biosciences; host or cells: Baculovirus expression system
Outline: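 Phosphotyrosine on a biotin-peptide substrate (0.5 μM) was read by time-resolved fluorescence at 615 and 665 nm with Eu-anti-pTyr antibody and APC-streptavidin after 1 h EDTA stop.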

[2] = test system: THP-1 cells (TNFα secretion on human IgG-coated plate); experiment: TNFα generation assay; format: cell-based; settings: IFN-γ differentiated THP-1 cells, 7 hours, AlphaLISA, read-out: IC50 of TNFα generation inhibitory activity
Outline: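 THP-1 cells were differentiated with 10 ng/ml IFN-γ for 2 days, then preincubated with compound for 30 min at room temperature. They were then plated at 5×10^4 cells/well on plates coated with human IgG (10 μg/ml). TNFα secreted over 7 h of culture was quantified by AlphaLISA.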

[3] = test system: THP-1 cells (phagocytosis of opsonized Escherichia coli); experiment: Antibody-dependent phagocytosis assay; format: cell-based; settings: Homo sapiens; IFNγ differentiated THP-1 cells, opsonized pHrodo Escherichia coli, 3 hours; read-out: IC50 upon phagocytosis inhibition
Outline: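 THP-1 cells were differentiated to macrophage-like cells with 10 ng/ml IFNγ for 2 days, then treated with test compound for 30 min at room temperature. pHrodo-labeled E. coli opsonized with anti-E. coli antibody were added for 3 h at 37° C. Phagocytosis by viable (Calcein AM-positive) cells was quantified by imaging.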

[4] = test system: rat type II collagen arthritis; experiment: Rat type II collagen-induced arthritis; format: in vivo; settings: female Lewis rats, oral administration 10 mg/kg/day, Day 7 to Day 20 once daily, Student's t-test
Description: The compounds were tested to examine effects upon rat type II collagen arthritis. Equivalent volumes of 0.05 mol/L acetic acid in which a 3 mg/mL bovine type II collagen solution (Collagen Gijutsu Kenshu-Kai) had been dissolved and Freund's incomplete adjuvant (Wako Pure Chemical Industries, Ltd.) were mixed to prepare an emulsion. A portion of the emulsion (0.5 ml) was intradermally injected into the tail bases of 6- to 8-week-old female Lewis rats (Charles River Laboratories Japan, Inc.) (Day 0). Each rat was subjected to the same treatment on Day 7 after the initial inoculation so as to induce arthritis. Each test compound was orally administered from Day 7 to Day 20 once daily. At a given time during the period from Day 7 to Day 21, the rat hindlimb volume was determined using a plethysmometer (UGO BASILE), and the result was designated as an arthritis index.

[5] = test system: mouse thrombocytopenia induced by anti-mouse CD41 antibody; experiment: Mouse thrombocytopenia model; format: in vivo; settings: Platelet, female BALB/c mice, 50 mg/kg 1 hour before anti-CD41 antibody, blood sampling 4 hours after antibody, read-out: improvement of platelet count compared with the control group
Description: Test compounds were tested to examine effects upon mouse thrombocytopenia. Each test compound (50 mg/kg) was administered to 5- to 7-week-old female BALB/c mice (Charles River Laboratories Japan, Inc.). One hour thereafter, an anti-mouse CD41 ([…]) antibody (SCB) (1 μg (200 μl)) was intravenously administered to each mouse so as to induce thrombocytopenia. Four hours after administration of the anti-CD41 antibody, blood sampling from the postcava was performed. The platelet count was determined using an automated hematology analyzer.

Row | SMILES | IC50 [1] | IC50 [2] | IC50 [3] | hindlimb swelling on Day 20 compared with the control group [4] | change in vivo at 50 mg/kg [5]
1 | C[C@H](N)[C@H](Nc1nc(Nc2cnc(N3CCOCC3)c(F)c2)c(C(N)=O)cc1F)C1CCC1 [Example 2-77, 6-(((1R,2S)-2-amino-1-cyclobutylpropyl)amino)-5-fluoro-2-((5-fluoro-6-morpholinopyridin-3-yl)amino)nicotinamide] | 10 to 50 nM | 130 to 200 nM | < 1000 nM | – | ≥ 50%
2 | CC[C@H](N)[C@@H](C)Nc1nc(Nc2ccc3c(c2)c(N(C)C)nn3C)c(C(N)=O)cc1F [Example 2-91, 6-(((2R,3S)-3-aminopentan-2-yl)amino)-2-((3-(dimethylamino)-1-methyl-1H-indazol-5-yl)amino)-5-fluoronicotinamide] | 10 to 50 nM | 130 to 200 nM | 1000 to 3000 nM | – | ≥ 50%
3 | Cc1ncc(Nc2nc(N[C@@H]3CCCC[C@@H]3N)c(F)cc2C(N)=O)cc1F [Example 2-142, 6-(((1R,2S)-2-aminocyclohexyl)amino)-5-fluoro-2-((5-fluoro-6-methylpyridin-3-yl)amino)nicotinamide] | 10 to 50 nM | 65 to 130 nM | < 1000 nM | – | ≥ 50%
4 | CN(C)c1nn(C)c2c(F)cc(Nc3nc(N[C@@H]4CCCC[C@@H]4N)c(F)cc3C(N)=O)cc12 [Example 2-184, 6-(((1R,2S)-2-aminocyclohexyl)amino)-2-((3-(dimethylamino)-7-fluoro-1-methyl-1H-indazole-5-yl)amino)-5-fluoronicotinamide hydrochloride] | < 10 nM | 65 to 130 nM | < 1000 nM | significantly inhibited hindlimb swelling | ≥ 50%
5 | COC[C@@H](Nc1nc(Nc2cc(F)c3c(c2)c(N(C)C)nn3C)c(C(N)=O)cc1F)[C@H](C)N [Example 2-193, 6-(((2S,3S)-3-amino-1-methoxybutan-2-yl)amino)-2-((3-(dimethylamino)-7-fluoro-1-methyl-1H-indazol-5-yl)amino)-5-fluoronicotinamide] | 10 to 50 nM | 130 to 200 nM | 1000 to 3000 nM | – | ≥ 50%
6 | COCCn1ncc2cc(Nc3nc(N[C@H](C4CC4)[C@H](C)N)c(F)cc3C(N)=O)ccc21 [Example 2-265, 6-(((1R,2S)-2-amino-1-cyclopropylpropyl)amino)-5-fluoro-2-((1-(2-methoxyethyl)-1H-indazol-5-yl)amino)nicotinamide] | < 10 nM | 65 to 130 nM | < 1000 nM | – | ≥ 50%
7 | COC[C@@H](Nc1nc(Nc2cc(OC)cc(OC)c2)c(C(N)=O)cc1F)[C@H](C)N [Example 2-267, 6-(((2S,3S)-3-amino-1-methoxybutan-2-yl)amino)-2-((3,5-dimethoxyphenyl)amino)-5-fluoronicotinamide] | < 10 nM | 65 to 130 nM | 1000 to 3000 nM | – | ≥ 50%
8 | COCCn1ncc2c(Nc3nc(N[C@@H]4CCCC[C@@H]4N)c(F)cc3C(N)=O)cccc21 [Example 2-302, 6-(((1R,2S)-2-aminocyclohexyl)amino)-5-fluoro-2-((1-(2-methoxyethyl)-1H-indazol-4-yl)amino)nicotinamide] | < 10 nM | 130 to 200 nM | 1000 to 3000 nM | – | ≥ 50%
9 | CCn1ncc2c(Nc3nc(N[C@@H]4CCOC[C@@H]4N)c(F)cc3C(N)=O)cccc21 [Example 2-330, 6-(((3R,4R)-3-aminotetrahydro-2H-pyran-4-yl)-amino)-2-((1-ethyl-1H-indazol-4-yl)amino)-5-fluoronicotinamide] | < 10 nM | 65 to 130 nM | < 1000 nM | – | ≥ 50%
10 | Cn1nc(OC(F)F)c2cc(Nc3nc(N[C@@H]4CCOC[C@@H]4N)c(F)cc3C(N)=O)ccc21 [Example 2-348, 6-(((3R,4R)-3-aminotetrahydro-2H-pyran-4-yl)amino)-2-((3-(difluoromethoxy)-1-methyl-1H-indazol-5-yl)amino)-5-fluoronicotinamide] | < 10 nM | 130 to 200 nM | < 1000 nM | – | ≥ 50%

Now from value to molecule, other results behind:

Row | IC50 [1] | IC50 [2] | IC50 [3] | SMILES | hindlimb swelling on Day 20 compared with the control group [4] | change in vivo at 50 mg/kg [5]
11 | < 10 nM | 65 to 130 nM | < 1000 nM | CN(C)c1nn(C)c2ccc(Nc3nc(N[C@@H]4CCCC[C@@H]4N)c(F)cc3C(N)=O)cc12 [Example 2-1, 6-(((1R,2S)-2-aminocyclohexyl)amino)-2-((3-(dimethylamino)-1-methyl-1H-indazol-5-yl)amino)-5-fluoronicotinamide] | significantly inhibited hindlimb swelling | ≥ 50%
12 | < 10 nM | 65 to 130 nM | < 1000 nM | COc1ccc(Nc2nc(N[C@H](C3CC3)[C@H](C)N)c(F)cc2C(N)=O)cc1OC [Example 2-48, 6-(((1R,2S)-2-amino-1-cyclopropylpropyl)amino)-2-((3,4-dimethoxyphenyl)amino)-5-fluoronicotinamide] | – | ≥ 50%
13 | < 10 nM | 130 to 200 nM | 1000 to 3000 nM | CCC[C@@H](Nc1nc(Nc2ccc3c(c2)c(N(C)C)nn3C)c(C(N)=O)cc1F)[C@H](C)N [Example 2-87, 6-(((2S,3R)-2-aminohexan-3-yl)amino)-2-((3-(dimethylamino)-1-methyl-1H-indazol-5-yl)amino)-5-fluoronicotinamide] | – | ≥ 50%
14 | < 10 nM | 130 to 200 nM | 1000 to 3000 nM | CC[C@H](N)[C@@H](C)Nc1nc(Nc2cccc3c2cnn3CC)c(C(N)=O)cc1F [Example 2-100, 6-(((2R,3S)-3-aminopentan-2-yl)amino)-2-((1-ethyl-1H-indazol-4-yl)amino)-5-fluoronicotinamide] | – | ≥ 50%
15 | < 10 nM | 65 to 130 nM | < 1000 nM | COCCn1nc(OC)c2cc(Nc3nc(N[C@@H]4CCCC[C@@H]4N)c(F)cc3C(N)=O)ccc21 [Example 2-123, 6-(((1R,2S)-2-aminocyclohexyl)amino)-5-fluoro-2-((3-methoxy-1-(2-methoxyethyl)-1H-indazol-5-yl)amino)nicotinamide] | – | ≥ 50%
16 | < 10 nM | 130 to 200 nM | < 1000 nM | COCCn1nc(OC(F)F)c2cc(Nc3nc(N[C@@H]4CCCC[C@@H]4N)c(F)cc3C(N)=O)ccc21 [Example 2-174, 6-(((1R,2S)-2-aminocyclohexyl)amino)-2-((3-(difluoromethoxy)-1-(2-methoxyethyl)-1H-indazol-5-yl)amino)-5-fluoronicotinamide] | – | ≥ 50%
17 | < 10 nM | < 65 nM | < 1000 nM | C[C@H](N)[C@H](Nc1nc(Nc2cc(F)c3c(c2)c(N(C)C)nn3C)c(C(N)=O)cc1F)C1CC1 [Example 2-188, 6-(((1R,2S)-2-amino-1-cyclopropylpropyl)amino)-2-((3-(dimethylamino)-7-fluoro-1-methyl-1H-indazol-5-yl)amino)-5-fluoronicotinamide] | – | ≥ 50%
18 | < 10 nM | 65 to 130 nM | < 1000 nM | CN(C)c1nn(C)c2c(F)cc(Nc3nc(N[C@@H]4CCOC[C@@H]4N)c(F)cc3C(N)=O)cc12 [Example 2-213, 6-(((3R,4R)-3-aminotetrahydro-2H-pyran-4-yl)amino)-2-((3-(dimethylamino)-7-fluoro-1-methyl-1H-indazol-5-yl)amino)-5-fluoronicotinamide] | – | ≥ 50%
19 | < 10 nM | 130 to 200 nM | < 1000 nM | CCC[C@@H](Nc1nc(Nc2cnc3c(c2)c(OC)nn3C)c(C(N)=O)cc1F)[C@H](C)N [Example 2-252, 6-(((2S,3R)-2-aminohexan-3-yl)amino)-5-fluoro-2-((3-methoxy-1-methyl-1H-pyrazolo[3,4-b]pyridin-5-yl)amino)nicotinamide] | – | ≥ 50%
